Experimental data reported in article PMC9029529, “Distinct Mechanisms of Cytotoxicity in Novel Nitrogenous Heterocycles: Future Directions for a New Anti-Cancer Agent” (Molecules, 2022).
Read-outs that look alike come from different tables or passages of the source.

Columns and labels:
HCT8 cells [1] = experiment: CellTiter-Glo assay, HCT8; format: cell-based; settings: Homo sapiens, HCT-8, 24 h, read-out: IC50 Colorectal Cancer HCT8
Protocol: (§1) To validate the anti-proliferative activity of the imidazole derivatives, the compounds were tested against several cancer cell lines, which included breast cancer (MDA-MB-231, KAIMRC1, and KAIMRC2), colorectal cancer (HCT8), and acute promyelocytic leukemia cells (HL60). KAIMRC1 was isolated from a person with stage II-B breast cancer and is ER+/PR+ and HER2-. In comparison, KAIMRC2 was isolated from a person with metastasized breast cancer and is a triple-negative (ER-/PR-, and HER2-) tumor cell line.
(§2) The CellTiter-Glo assay (Promega™, Madison, WI, USA) was used to evaluate imidazole and oxazolone derivatives cytotoxicity against various cancer cell lines; MCF-10A, HL60, MDA-MB-231, and HCT8, purchased from ATCC, USA, except KAIMRC1 and KAIMRC2, which were isolated, established, and characterized in the core laboratory facility KAIMRC, Riyadh, Saudi Arabia. The cells were seeded in white 96-well plates at a density of 5 × 10^3 cells/well in a 100 μL of growth medium with various concentrations of each compound ranging from 0 to 250 µM. Cells were incubated at 37 °C for 24 h. Plates were equilibrated at RT for 30 min. A quantity of 100 µL of CellTiter-Glo reagent was added to each well and mixed for 2 min on an orbital shaker. Plates were incubated for 10 min at RT before measuring the luminescence using an Envision plate reader (Perkin Elmer). Half-maximal inhibitory concentration IC50 values (μM) were calculated for each imidazole derivative from the dose–response curve. The cytotoxic effect at a concentration <10 µM was considered strongly active and from 11 to 100 µM was considered moderately active, whereas above 100 µM was deemed non-active. Mitoxantrone was utilized as a positive control. Experiments were performed in triplicates.

KAIMRC1 cells = experiment: CellTiter-Glo assay, KAIMRC1; format: cell-based; settings: Homo sapiens, 24 h, read-out: IC50 Breast Cancer KAIMRC1
Protocol: as §1, §2

MCF-10A cells = experiment: MTT assay, MCF-10A; format: cell-based, human; settings: for IC50: Homo sapiens, MCF-10A, 24 h, 0 to 250 μM, read-out: IC50 Non-Malignant Breast Epithelial Cells (MCF-10A)
Protocol: (§3) To establish the cytotoxic effect of the nitrogenous derivatives, cells were treated with various concentrations of the drugs ranging from 0 to 250 μM. Following a 24 h incubation period, cell viability was assessed using the MTT assay. Mitoxantrone served as a positive control to evaluate growth inhibition. Since heterogeneity is a hallmark of cancer, the study included cell lines with diverse genomic and proteomic profiles. […] In this regard, further optimization would be required to increase the selective therapeutic potential of compound 9. To determine whether the anti-proliferative effect of the nitrogen derivatives could be translated to other malignancies, we tested the cytotoxic effect on the HCT8 (colorectal cancer) cell line. HCT8 is an adenocarcinoma driven by the Kirsten Rat Sarcoma (KRAS) mutation, unlike MCF-10A [28].
(§4) The MTT assay was utilized to examine the imidazole derivatives’ anti-proliferative activity against MCF-10A, MDA-MB-231, and HCT8 cell lines, purchased from ATCC, USA [47]. Firstly, 5 × 10^3 cells/well were seeded in a 96-well plate in 100 μL of growth medium and were subsequently cultured overnight with various concentrations of each compound ranging from 0 to 250 µM [48]. The media was aspirated, and 50 µL of serum-free media and 50 µL of MTT solution were added to each well. Next, cells were incubated at 37 °C for 3 h, then 150 µL of MTT solvent was added into each well. After that, plates were wrapped in foil and agitated for 15 min on an orbital shaker. Finally, the absorbance was measured within 1 h at OD590 nm. Half-maximal inhibitory concentration IC50 values (μM) were calculated for each compound from the dose–response curve. Experiments were performed in triplicates.

HL60 cells [2] = experiment: High-content imaging (HCI) cell health / apoptosis assay; format: cell-based, human; settings: for viability at 31.25 µM / viability at 62.5 µM / viability at 125 µM: Homo sapiens, HL-60, HCI Cell Health, read-out: HL60 Cell Line % Cell Viability; for viability at 31.25 µM / viability at 62.5 µM / viability at 125 µM / apoptosis in HL60 cells (HCI): 48 h; for apoptosis in HL60 cells (HCI): increasing concentrations 31.25-125 µM, compared with control
Protocol: Figure 5A depicts a dose-dependent increase in cell shrinkage/condensing, and necrotic cells are also visible. […] Furthermore, even at the lowest concentration, 31.25 µM, compound 9 was more efficacious than compound 8 since there appeared to be fewer healthy cells (blue and green staining) and a greater level of shrinkage. Moreover, Figure 5B depicts the HCI Cell Health determined by means of digital analysis, displaying the HL60 percentage cell viability as a function of increasing drug concentrations.
Figure 5 HCI-based apoptosis assay. (A) HL60 cells were treated with three concentrations (31.25 µM, 62.5 µM, and 125 µM) of compounds # 8 (a–c), # 9 (d–f), and PBS for the negative control (g) for 48 h. The nucleus (blue) was stained with HOECHST 33342, the cytoplasm (Green) was stained with Calcein AM, and dead cells (Red) were stained with Propidium Iodide (PI). […] (B) HCI Cell Health Digital Analysis MetaXpress software generated the graph quantifying the cell viability, seen in B, as a percentage of HL60 cells treated with the compounds. […] TEXT PRINTED IN THE PICTURE: (B) Compound # 8: HL60 Cell Line % Cell Viability: 64.5 (125μM); HL60 Cell Line % Cell Viability: 87.4 (62.5μM); HL60 Cell Line % Cell Viability: 94.6 (31.25μM) | (B) Compound # 9: HL60 Cell Line % Cell Viability: 45.7 (125μM); HL60 Cell Line % Cell Viability: 56.9 (62.5μM); HL60 Cell Line % Cell Viability: 79.9 (31.25μM) | (B) Control: HL60 Cell Line % Cell Viability: 98.5
HL60 cells were seeded in a 96-well plate at a density of 20,000 cells per well. The cells were treated with compounds 8 and 9 and negative control (PBS) for 48 h. Three graded concentrations were used for the treatment, 31.25 µM, 62.5 µM, and 125 µM. After the treatment, the cells were stained with Calcein AM (2 µg/mL), HOECHST33342 (2.5 µg/mL), and Propidium Iodide (2.5 µg/mL) for 45 min at 37 °C and 5% CO2. Plates were imaged on a Molecular Devices ImageXpress® Microsystem, and the acquired image data were analyzed using MetaXpress® software, Molecular Devices, Downingtown, PA, USA. The Cell Health module available in the MetaXpress software was used to measure the percentage viability of live and dead cells. Experiments were performed in triplicates.

HL60 cells [3] = experiment: CellTiter-Glo assay, HL60; format: cell-based, human; settings: read-out: IC50 Leukemia HL60
Protocol: as §1, §2

HCT8 cells [4] = experiment: MTT assay, HCT8; format: cell-based; settings: Homo sapiens, HCT-8, 24 h, 0 to 250 μM, read-out: IC50 Colorectal Cancer (HCT8)
Protocol: as §3, §4

Compound	IC50 (HCT8 cells [1]) [µM]	IC50 (KAIMRC1 cells) [µM]	IC50 in MCF-10A relative to MDA-MB231 (cytotoxic selectivity) (MCF-10A cells)	IC50 (MCF-10A cells) [µM]	viability at 31.25 µM (HL60 cells [2]) [%]	viability at 62.5 µM (HL60 cells [2]) [%]	viability at 125 µM (HL60 cells [2]) [%]	apoptosis in HL60 cells (HCI) (HL60 cells [2])	IC50 (HL60 cells [3]; 24 h) [µM]	IC50 (HL60 cells [3]; Homo sapiens, HL-60, 24 h) [µM]	IC50 (HCT8 cells [4]) [µM]	cytotoxic efficacy (HL60 cells [2]; 31.25 µM, HL60, 48 h)	cytotoxicity (HL60 cells [2]; 62.5 µM, HL60, 48 h)
O=C1/C(=C/c2ccccc2)N=C(c2ccccc2)N1Nc1ccc([N+](=O)[O-])cc1[N+](=O)[O-] [Compound 8]	33.1	10.2	six-fold higher	30.7	94.6	87.4	64.5	led to apoptosis	9.24	9.23	29.5		
COc1cccc(/C=C2\N=C(c3ccccc3)N(Nc3ccc([N+](=O)[O-])cc3[N+](=O)[O-])C2=O)c1 [Compound 9]	22.1	22.2		9.52	79.9	56.9	45.7	led to apoptosis	8.63	8.63	13.2	approximately 20%	approximately 54%
